From patent publication US4421687A, “Macbecin derivatives” (priority 1981, dated 1983)
In brackets after ≈: the same amount, converted by molar mass.

Assays:
[1] = tested on: Staphylococcus aureus; experiment: antibacterial activity (MIC) against Staphylococcus aureus; assay type: cell-based
[2] = tested on: Bacillus subtilis; experiment: antibacterial activity (MIC) against Bacillus subtilis; assay type: cell-based
[3] = acute toxicity (LD50), mouse, intraperitoneal; assay type: in vivo

`COC1CC(C)C(OC)c2cc(O)cc(c2O)NC(=O)C(C)=CC=CC(C)C(OC(N)=O)C(C)=CC(C)C1O` (centres unmarked) [E-3-R] showed an MIC [1] of 50 to 100 µg/mL (≈ 91.5 to 183 µM) and an MIC [2] of 50 to 100 µg/mL (≈ 91.5 to 183 µM).

In the case of `COC1CC(C)C(OC)C2=CC(=O)C=C(NC(=O)C(C)=CC=CC(C)C(OC(N)=O)C(C)=CC(C)C1O)C2=O` (centres unmarked) [E-3], the MIC [1] is reported as 50 to 100 µg/mL (≈ 91.8 to 184 µM) and the MIC [2] is reported as 50 to 100 µg/mL (≈ 91.8 to 184 µM).

In the case of `COC1c2cc(O)cc(c2O)NC(=O)/C(C)=C/C=C\C(C)C(OC(N)=O)/C(C)=C/C(C)C(OC)C(O)CC1C` (centres unmarked) [E-5-R], the MIC [1] is reported as 50 to 100 µg/mL (≈ 91.5 to 183 µM), the MIC [2] is reported as 50 to 100 µg/mL (≈ 91.5 to 183 µM) and the LD50 ([3]; in vivo, ip, intraperitoneal, acute toxicity) is reported as 100 to 200 mg/kg. The “acute toxicity as compared with Macbecin I and II” value ([3]; intraperitoneal, compared with Macbecin I and II) was “lower toxicity” and the “acute toxicity (in words)” value ([3]; ip, conclusion from the LD50) was “low toxicity”.

For `COC1C2=CC(=O)C=C(NC(=O)C(C)=CC=CC(C)C(OC(N)=O)C(C)=CC(C)C(OC)C(O)CC1C)C2=O` (centres unmarked) [E-5], the MIC [1] was 50 to 100 µg/mL (≈ 91.8 to 184 µM) and the MIC [2] was 50 to 100 µg/mL (≈ 91.8 to 184 µM).
